{"source": "patent US20100143993A1", "about": "“PROCESS FOR FERMENTIVE PREPARATIONFOR ALCOLHOLS AND RECOVERY OF PRODUCT” (E.I. DU PONT DE NEMOURS AND COMPANY, priority 2008, published 2010)", "key": {"[1]": {"system": "Lactobacillus fermentum (ATCC 14931)", "experiment": "Glucose Uptake Index of Lactobacillus fermentum culture with ionic liquid", "format": "cell-based", "settings": "5% (v/v) of the ionic liquid phase, MRS medium, 30° C., 16 hours after addition"}, "[2]": {"system": "Lactobacillus zeae (ATCC 15820)", "experiment": "Glucose Uptake Index of Lactobacillus zeae culture with ionic liquid", "format": "cell-based", "settings": "5% (v/v) of the ionic liquid phase, MRS medium, 30° C., 16 hours after addition", "experimental": "This media was made per bottle instructions using sterilized water, and was then again filter sterilized before use. The test tubes were incubated at 30° C. at 175 rpm in an Inova Incubator (Karlsbad, Sweden). After 24 hours, the test tubes were removed and stored at 4° C.\nA portion (50 μL) of each stock culture prepared as above was inoculated into separate 15 mL sterile polypropylene culture tubes containing fresh MRS medium (3 mL). These tubes were incubated for four hours at 30° C. at 175 rpm. After four hours, one of these culture tubes was inoculated with 150 μL (5% v/v) of each of the ionic liquids as listed in Table 1 below. […] Each tube that was inoculated with an ionic liquid was also paired with a tube that received no ionic liquid and was used as a control.\nAll culture tubes were then incubated again under the same conditions for another 16 hours. After 16 hours, the culture tubes were stored at −80° C. Analytical samples were taken from each culture tube by thawing the samples and spinning them at 28,000 rpm and 20° C. for ten minutes in a Sorvall Instruments RC3C (Newtown Conn.) centrifuge. One milliliter of supernatant was removed from each tube and was subjected to high performance liquid chromatography (HPLC) analysis using an Agilent (Palo Alto Calif.) HPLC 1100 with a BioRad Aminex 87-H using 0.008 N sulfuric acid with both diode array and refractive index detection, and an Agilent HPLC 1100 with a Shodex OH-pak column using 0.01 N sulfuric acid. Data analysis was performed using the Agilent Chemstation software and Microsoft Excel.\nThe glucose uptake index was calculated by taking the total glucose consumed in a fermentation sample, whether or not the sample contained an ionic liquid, and dividing it by the total initial glucose present in the broth at the start of fermentation."}, "[3]": {"experiment": "Extraction of ethanol from an aqueous solution by ionic liquid", "settings": "for Ethanol Remaining in Solution: aqueous solution about 31 g/L ethanol; for Ethanol Remaining in Solution / Ethanol Extracted: 5 vol % ionic liquid; for Ethanol Remaining in Solution / Ethanol: overnight equilibration, HPLC; for Ethanol: ethanol concentration in aqueous solution (about 31 g/L at start) after mixing with 5 vol % ionic liquid; for Ethanol Extracted: percentage relative to control without ionic liquid (Example 31)"}, "[4]": {"experiment": "Extraction of isobutanol from an aqueous solution by ionic liquid", "settings": "for Isobutanol Remaining in Solution: aqueous solution about 31 g/L isobutanol; for Isobutanol Remaining in Solution / Isobutanol Extracted: 5 vol % ionic liquid; for Isobutanol Remaining in Solution / Isobutanol: overnight equilibration, HPLC; for Isobutanol: isobutanol concentration in aqueous solution (about 31 g/L at start) after mixing with 5 vol % ionic liquid; for Isobutanol Extracted: percentage relative to control without ionic liquid (Example 31)", "experimental": "Ethanol and isobutanol concentration in the solution was measured using HPLC as described above following thorough mixing and overnight equilibration of the contents of the vial."}}, "note": "Several values for one entry are separate records, joined by “and”; a condition that tells them apart may be missing. Equal entries are not always repeated."}
{"molecule": "1-butyl-3-methylimidazolium 1,1,2,3,3,3-hexafluoropropanesulfonate [[BMIM] [HFPS]]", "values": [{"measurement": "GUI of Sample (Glucose Utilization Index)", "setting": "[1]", "value": "8.0 and 11.5"}, {"measurement": "GUI of Sample (Glucose Utilization Index)", "setting": "[2]", "value": "21.2 and 34.3"}]}
{"molecule": "1-butyl-3-methylimidazolium 1,1,2-trifluoro-2-(perfluoroethoxy)ethanesulfonate [[BMIM] [TPES]]", "values": [{"measurement": "GUI of Sample (Glucose Utilization Index)", "setting": "[1]", "value": 7.21}, {"measurement": "GUI of Sample (Glucose Utilization Index)", "setting": "[2]", "value": 5.06}]}
{"molecule": "1-butyl-3-methylimidazolium 1,1,2-trifluoro-2-(trifluoromethoxy)ethanesulfonate [[BMIM] [TTES]]", "values": [{"measurement": "GUI of Sample (Glucose Utilization Index)", "setting": "[1]", "value": 16.2}, {"measurement": "GUI of Sample (Glucose Utilization Index)", "setting": "[2]", "value": 58.8}]}
{"molecule": "1-butyl-3-methylimidazolium 2-(1,2,2,2-tetrafluoroethoxy)-1,1,2,2-tetrafluoroethanesulfonate [[BMIM] [FS]]", "values": [{"measurement": "GUI of Sample (Glucose Utilization Index)", "setting": "[1]", "value": 24.0}, {"measurement": "GUI of Sample (Glucose Utilization Index)", "setting": "[2]", "value": 54.4}]}
{"molecule": "1-butyl-3-methylimidazolium bis(trifluoromethylsulfonyl)imide [[BMIM] [Tf2N]]", "values": [{"measurement": "GUI of Sample (Glucose Utilization Index)", "setting": "[1]", "value": 26.8}, {"measurement": "GUI of Sample (Glucose Utilization Index)", "setting": "[2]", "value": 64.4}]}
{"molecule": "1-butyl-3-methylpyrrolidinium bis(trifluoromethylsulfonyl)imide [[BMP] [Tf2N]]", "values": [{"measurement": "Ethanol Remaining in Solution", "setting": "[3]", "value": 31.1, "unit": "g/L"}, {"measurement": "Ethanol", "setting": "[3]", "value": 676, "unit": "mM"}, {"measurement": "Ethanol Extracted", "setting": "[3]", "value": 1.17, "unit": "%"}, {"measurement": "GUI of Sample (Glucose Utilization Index)", "setting": "[1]", "value": 0.96}, {"measurement": "Isobutanol Remaining in Solution", "setting": "[4]", "value": 29.0, "unit": "g/L"}, {"measurement": "Isobutanol", "setting": "[4]", "value": 391, "unit": "mM"}, {"measurement": "Isobutanol Extracted", "setting": "[4]", "value": 6.33, "unit": "%"}, {"measurement": "GUI of Sample (Glucose Utilization Index)", "setting": "[2]", "value": 49.8}]}
{"molecule": "1-ethyl-3-methylimidazolium bis(pentafluoroethylsulfonyl)imide [[EMIM] [BEI]]", "values": [{"measurement": "GUI of Sample (Glucose Utilization Index)", "setting": "[1]", "value": 25.5}, {"measurement": "GUI of Sample (Glucose Utilization Index)", "setting": "[2]", "value": 36.0}]}
{"molecule": "1-ethyl-3-methylimidazolium bis(trifluoromethylsulfonyl)imide [[EMIM] [Tf2N]]", "values": [{"measurement": "Ethanol Remaining in Solution", "setting": "[3]", "value": 30.9, "unit": "g/L"}, {"measurement": "Ethanol", "setting": "[3]", "value": 670, "unit": "mM"}, {"measurement": "Ethanol Extracted", "setting": "[3]", "value": 1.96, "unit": "%"}, {"measurement": "GUI of Sample (Glucose Utilization Index)", "setting": "[1]", "value": 54.5}, {"measurement": "Isobutanol Remaining in Solution", "setting": "[4]", "value": 28.8, "unit": "g/L"}, {"measurement": "Isobutanol", "setting": "[4]", "value": 389, "unit": "mM"}, {"measurement": "Isobutanol Extracted", "setting": "[4]", "value": 7.11, "unit": "%"}, {"measurement": "GUI of Sample (Glucose Utilization Index)", "setting": "[2]", "value": 51.2}]}
{"molecule": "1-hexyl-3-methylimidazolium bis(trifluoromethylsulfonyl)imide [[HMIM] [Tf2N]]", "values": [{"measurement": "Ethanol Remaining in Solution", "setting": "[3]", "value": 31.3, "unit": "g/L"}, {"measurement": "Ethanol", "setting": "[3]", "value": 678, "unit": "mM"}, {"measurement": "Ethanol Extracted", "setting": "[3]", "value": 0.76, "unit": "%"}, {"measurement": "GUI of Sample (Glucose Utilization Index)", "setting": "[1]", "value": 19.5}, {"measurement": "Isobutanol Remaining in Solution", "setting": "[4]", "value": 28.8, "unit": "g/L"}, {"measurement": "Isobutanol", "setting": "[4]", "value": 388, "unit": "mM"}, {"measurement": "Isobutanol Extracted", "setting": "[4]", "value": 7.28, "unit": "%"}, {"measurement": "GUI of Sample (Glucose Utilization Index)", "setting": "[2]", "value": 66.2}]}
{"molecule": "3-methyl-1-propylpyridinium bis(trifluoromethylsulfonyl)imide [[PMPy] [Tf2N]]", "values": [{"measurement": "GUI of Sample (Glucose Utilization Index)", "setting": "[1]", "value": 26.1}, {"measurement": "GUI of Sample (Glucose Utilization Index)", "setting": "[2]", "value": 63.5}]}
{"molecule": "CCCCn1cc[n+](C)c1.F[B-](F)(F)F", "note": "[[BMIM] [BF4], 1-butyl-3-methylimidazolium tetrafluoroborate]", "values": [{"measurement": "GUI of Sample (Glucose Utilization Index)", "setting": "[2]", "value": 11.8}]}
{"molecule": "CCCCn1cc[n+](C)c1.F[P-](F)(F)(F)(F)F", "note": "[[BMIM] [PF6], 1-butyl-3-methylimidazolium hexafluorophosphate]", "values": [{"measurement": "GUI of Sample (Glucose Utilization Index)", "setting": "[2]", "value": 55.4}]}
{"molecule": "CCCCCCn1cc[n+](C)c1.FC(F)(F)C(F)(F)[P-](F)(F)(F)(C(F)(F)C(F)(F)F)C(F)(F)C(F)(F)F", "note": "[[HMIM] [FAP], 1-hexyl-3-methylimidazolium tris(pentafluoroethyl)trifluorophosphate]", "values": [{"measurement": "Ethanol", "setting": "[3]", "value": 680, "unit": "mM"}, {"measurement": "Ethanol Extracted", "setting": "[3]", "value": 0.45, "unit": "%"}, {"measurement": "GUI of Sample (Glucose Utilization Index)", "setting": "[1]", "value": 84.7}, {"measurement": "Isobutanol", "setting": "[4]", "value": 404, "unit": "mM"}, {"measurement": "Isobutanol Extracted", "setting": "[4]", "value": 3.14, "unit": "%"}, {"measurement": "GUI of Sample (Glucose Utilization Index)", "setting": "[2]", "value": 51.9}]}
{"molecule": "tetradecyl(tri-n-hexyl)phosphonium 1,1,2-trifluoro-2-(perfluoroethoxy)ethanesulfonate [[6,6,6,14-P] [TPES]]", "values": [{"measurement": "GUI of Sample (Glucose Utilization Index)", "setting": "[1]", "value": 92.8}, {"measurement": "GUI of Sample (Glucose Utilization Index)", "setting": "[2]", "value": 62.8}]}
